Test system: female db/db mice
Assay: blood sugar level depressing activity in dd/db mice
Assay type: in vivo
Settings: dose 10 mg/kg, drug mixed with powder diet, given for 14 days, difference between db/db control group and +/+ mice taken as 100%
Protocol: (blood sugar level depressing activity in dd/db mice)
Female C57BL/KsJ-dbm db+/db+, C57BL/KsJ-dbm +m/+m (Jackson Laboratory) mice (5 weeks old) were purchased and subjected to the test after 2-3 weeks of acclimating period.
The test drug was mixed with a powder diet (CE-2, Clea Japan, Inc.) in a mortar. In the case of administration in 100 mg/kg, the mixing proportion of the test drug to the diet was 0.1%, in the case of 30 mg/kg, the proportion was 0.03% and in the case of 10 mg/kg, the proportion was 0.01%. The diet was changed twice a week. The amount of the diet given and the amount left were recorded and the diet intake was calculated by determining the difference.
The female db/db mice were grouped according to body weight, blood sugar level and triglceride concentration in blood. […] The blood sugar value, triglyceride concentration in plasma and insulin concentration in plasma were measured at day 0 and day 14, and blood sugar value and triglyceride concentration in blood were measured at day 7. Body weight was measured at day 0, day 7 and day 14. […]
Blood sugar value was measured using 10-15 μl of plasma and in accord with glucose oxidase method glucose CII-test Waco, Waco Pure Chemicals Co., Ltd.). […] The insulin concentration in plasma was measured using 20 μl of plasma (preservable at −20° C.) and in accord with an antibody method (Phadesef Insulin RIA kit, Kabi Pharmacia). […]

## CCCCCS(=O)(=O)NC(=O)c1ccc2oc(C)c(Cc3ccc(Cl)cc3Cl)c2c1 [Compound A, 3-(2,4-Dichlorobenzyl)-2-methyl-5-(1-n-pentanesulfonylcarbamoyl)-benzo[b]furan]
  Blood sugar decrease (%): 71%
